Reference: article PMC4236121 (PLoS ONE, 2014)
Where no end group is shown, it is not given here.

target: T1, DQ8 protein (HLA-DQ8: DQA1*03:01/DQB1*03:02) (Homo sapiens, UniProt P01909+P01920, A209T/A45G/C70Q/D89A/DUP78-78/E183D/E77G/F237L/G63E/H199R/I129T/K197E/L178F/L74F/L98V/Q57E/Q76R/S185I/S97I/T217I/T49S/V73L/Y58L); assay: Peptide binding competition; conditions: not given
T1 construct: made in house; host or cells: insect cells (Drosophila S2 is named only for the biotinylated tetramer preparation)
Experimental: Recombinant DQ8 protein was produced as previously described. Briefly, soluble DQ8 was purified from insect cell culture supernatants by affinity chromatography and dialyzed against citric/phosphate storage buffer, pH 5.4. For the preparation of HLA class II tetramers, DQ8 protein was in vivo biotinylated in Drosophila S2 cells prior to harvest and dialyzed into citric/phosphate buffer. The biotinylated monomer was loaded with 0.2 mg/ml of peptide by incubating at 37°C for 72 h in the presence of 0.2 mg/ml n-Dodecyl-β-maltoside and 1 mM Pefabloc SC (Sigma–Aldrich, St. Louis, MO). Peptide loaded monomers were subsequently conjugated into tetramers using R-PE streptavidin (Biosource International, Camarillo, CA) at a molar ratio of 8∶1.
Peptide binding curves were simulated by non-linear regression with Prism software (Version 5, GraphPad Software Inc.) using a sigmoidal dose–response curve.

Compound | IC50 [nM]
TAKAMEQMAGSSEQAAEAME [H1MP185–204, reference compound] | 1400
CSCC[C@H](NC(=O)[C@H](CC(=O)O)NC(=O)[C@H](CC(C)C)NC(=O)CNC(=O)[C@@H](NC(=O)[C@H](CO)NC(=O)[C@H](CC(C)C)NC(=O)[C@H](CCC(N)=O)NC(=O)[C@H](CC(N)=O)NC(=O)[C@H](Cc1ccccc1)NC(=O)[C@H](Cc1ccc(O)cc1)NC(=O)[C@H](CCCNC(=N)N)NC(=O)[C@@H]1CCCN1)[C@@H](C)O)C(=O)N[C@H](C(=O)NCC(=O)O)C(C)C [GAD65 176–190] | > 50000
TYEIAPVFVLLEYVT [GAD65 206–220] | 1500

same assay, conditions: competition with 0.04 µM biotinylated GAD65_250–266 index peptide in wells coated with recombinant DQ8 protein; europium-streptavidin, time resolved fluorometer; sigmoidal dose-response fit; read-out: IC50 (binding to DQ8)

Compound | IC50 [nM]
FQQDKHYDLSYDTGD [GAD65 427–441] | > 50000
YVVKSFDRSTKVIDFHYPNE [GAD65 121–140] | 1600
YIPPSLRTLEDNEE [GAD65 508–521] | > 50000
AKGTTGFEAHVDKCL [GAD65 461–475] | > 50000
